Literature values as cited in patent US10668058B2, “Device and method for delivery of a medicament” (Philip Morris Products S.A., priority 2007, dated 2020).

Conditions: 25° C.

CN1CCCC1c1cccnc1 (stereo not shown) [Nicotine only, Nicotine]
vapor pressure: 0.04 mm Hg
